# Data as given in patent US12433882B2, “Treatments for amyotrophic lateral sclerosis using dazucorilant” (Corcept Therapeutics Incorporated, priority 2022, dated 2025).
# “Also recorded” adds a separate entry of the source.
# Tests used:
# [1] = Safety and tolerability in healthy volunteers; type: in vivo
# Protocol: (§2) An adaptive dose, double-blind, placebo-controlled study (NCT04249323, EudraCT 2019-004258-27) was conducted in 110 healthy male and female volunteers (18-60 years old; BMI 18-30 kg/m2; weight≤102 kg; “First In Human” (FIH) study).
# GR [2] = target: T1, GR (Homo sapiens, UniProt P04150); assay: Dexamethasone-induced TAT activity in primary hepatocytes from humans; type: cell-based; design: endogenous in cells; host or cells: primary hepatocytes from humans
# T1 sequence (P04150 1-777): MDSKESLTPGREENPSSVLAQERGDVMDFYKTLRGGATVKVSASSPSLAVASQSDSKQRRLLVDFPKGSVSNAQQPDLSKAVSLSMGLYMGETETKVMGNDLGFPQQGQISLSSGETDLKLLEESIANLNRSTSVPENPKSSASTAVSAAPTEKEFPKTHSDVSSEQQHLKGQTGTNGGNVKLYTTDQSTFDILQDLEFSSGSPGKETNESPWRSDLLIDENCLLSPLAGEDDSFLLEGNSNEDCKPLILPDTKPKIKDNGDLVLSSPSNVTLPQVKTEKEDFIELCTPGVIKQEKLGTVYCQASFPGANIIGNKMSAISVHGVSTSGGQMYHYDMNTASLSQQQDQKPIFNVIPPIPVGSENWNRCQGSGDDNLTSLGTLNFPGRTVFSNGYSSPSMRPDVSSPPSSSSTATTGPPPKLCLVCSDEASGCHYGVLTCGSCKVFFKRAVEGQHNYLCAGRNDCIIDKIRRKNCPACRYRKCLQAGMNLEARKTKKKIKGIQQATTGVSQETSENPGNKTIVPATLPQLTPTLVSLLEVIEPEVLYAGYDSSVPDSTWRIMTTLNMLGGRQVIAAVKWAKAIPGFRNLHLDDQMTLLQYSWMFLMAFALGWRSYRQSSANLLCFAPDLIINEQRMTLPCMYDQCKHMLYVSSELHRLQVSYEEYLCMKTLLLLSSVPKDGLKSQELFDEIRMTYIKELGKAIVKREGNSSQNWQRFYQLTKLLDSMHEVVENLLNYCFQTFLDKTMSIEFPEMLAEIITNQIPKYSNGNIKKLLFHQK
# Protocol: (§1) Dazucorilant is selective for GR over other nuclear hormone receptors, and a range of other receptors, enzymes, and ion channels. For example, dazucorilant has high selectivity for GR relative to the progesterone receptor (PR), androgen receptor, and estrogen receptor, showing no significant binding to these receptors at a concentration of 10 μM (0%, 1.5% and […], respectively).
# estrogen receptor = assay: Estrogen receptor binding; conditions: 10 μM
# Protocol: as §1
# [3] = Quantitative whole-body autoradiography (QWBA) study in rats; type: in vivo
# Protocol: The in vivo distribution of dazucorilant was determined in a quantitative whole-body autoradiography (QWBA) study in rats. Following a single oral administration of ^14C-dazucorilant to male and female rats, radioactivity was steadily absorbed, with maximal tissue concentrations generally occurring at around 12 hours post-dose.
# GR [4] = target: T2, GR (Rattus norvegicus, UniProt P06536); assay: Inhibition of dexamethasone effect on TAT activity, rat hepatoma cell line; type: cell-based; conditions: read-out: Kc, inhibition of dexamethasone effects on TAT activity
# T2 construct: endogenous in cells
# T2 sequence (P06536 1-795): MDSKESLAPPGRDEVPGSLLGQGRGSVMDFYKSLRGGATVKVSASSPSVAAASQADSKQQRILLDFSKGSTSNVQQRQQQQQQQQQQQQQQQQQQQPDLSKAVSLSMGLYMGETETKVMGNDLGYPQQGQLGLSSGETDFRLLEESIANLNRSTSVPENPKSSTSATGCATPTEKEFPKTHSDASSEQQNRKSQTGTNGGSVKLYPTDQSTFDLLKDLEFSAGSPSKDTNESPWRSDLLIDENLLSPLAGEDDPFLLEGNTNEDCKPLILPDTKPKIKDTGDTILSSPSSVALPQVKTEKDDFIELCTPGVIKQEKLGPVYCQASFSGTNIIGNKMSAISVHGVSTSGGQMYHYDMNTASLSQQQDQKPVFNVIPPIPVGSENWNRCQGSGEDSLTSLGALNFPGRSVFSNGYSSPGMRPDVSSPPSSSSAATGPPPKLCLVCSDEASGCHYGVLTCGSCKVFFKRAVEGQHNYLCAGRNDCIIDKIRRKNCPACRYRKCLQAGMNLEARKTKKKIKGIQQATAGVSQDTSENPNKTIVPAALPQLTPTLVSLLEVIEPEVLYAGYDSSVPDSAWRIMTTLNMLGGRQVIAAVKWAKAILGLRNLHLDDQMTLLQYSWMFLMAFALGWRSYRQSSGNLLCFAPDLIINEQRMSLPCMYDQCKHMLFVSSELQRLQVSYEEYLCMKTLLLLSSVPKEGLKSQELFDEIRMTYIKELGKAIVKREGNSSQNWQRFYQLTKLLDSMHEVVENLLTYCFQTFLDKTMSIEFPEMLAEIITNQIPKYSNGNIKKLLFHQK
# [5] = test system: effect of prednisone on eosinophils, lymphocytes, neutrophils, osteocalcin; assay: First In Human study Part 3, proof of pharmacological effect (prednisone challenge); type: in vivo; conditions: prednisone+dazucorilant vs. prednisone alone
# From the text: Linear mixed model of PD parameter estimates from part 3 of the FIE study, including terms for treatment fitted as a fixed effect, subject fitted as a random effect, and baseline concentration values fitted as a covariate. AUEC, area under the effect curve; cfb, change from baseline; CI, confidence interval; Emax, maximum change; ns, not significant.
# [6] = Brain penetration study, multiple oral dose PK in plasma and CSF; type: in vivo, human
# Protocol: as §2
# [7] = first 24 hours after dosing, single oral dose, rats
structure (smiles),measurement,setting,value
"O=C(c1ccccn1)[C@]12Cc3cnn(-c4ccc(F)cc4)c3C=C1CCN(S(=O)(=O)c1ccc(C(F)(F)F)cc1)C2 [dazucorilant, (R)-(1-(4-fluorophenyl)-6-((4-(trifluoromethyl)phenyl)sulfonyl)-4,4a, 5,6,7,8-hexahydro-1-H-pyrazolo[3,4-g]isoquinolin-4a-yl) (pyridin-2-yl)methanone]",single doses considered safe and well tolerated,"[1]; both, human, in vivo",up to 1000 mg
same,serious or severe treatment-emergent adverse events,[1]; healthy volunteers,No serious or severe treatment-emergent adverse events were reported
same,most common adverse events,"[1]; human, in vivo","gastrointestinal, nervous system, musculoskeletal, and connective tissue disorders"
same,safety concerns,"[1]; human, in vivo",no significant safety concerns were identified
same,severity of adverse events,"[1]; human, in vivo",mild to moderate
same,multiple doses considered safe,[1]; multiple doses QD,up to 300 mg QD
same,multiple doses safe and generally well tolerated,[1]; multiple doses QD,up to 200 mg QD
same,dexamethasone-induced increase in TAT activity,GR [2],prevented the dexamethasone-induced increase in TAT activity
same,binding to estrogen receptor,estrogen receptor,37.5%
same,"Tissue:blood ratio, brain",[3]; [7],> 0.1
same,"Tissue:blood ratio, spinal cord",[3]; [7],> 0.1
same,time of maximal tissue concentrations of radioactivity,"[3]; single oral administration, male and female rats, post-dose",around 12 hours
same,Ki,GR [4],4.2 nM
same,"effect of dazucorilant on prednisone-induced changes in eosinophils, lymphocytes, osteocalcin, neutrophils",[5],ameliorated the effect of prednisone on these parameters
same,dose proportionality of exposures,"[6]; 300 mg relative to 150 mg, daily for 14 days",greater than dose-proportional increase in dazucorilant exposures
same,detection in the CSF,"[6]; 1 week of QD dosing, 150 mg and 300 mg, fed",detectable in the CSF in all study participants
same,time to steady state of exposure,[6]; QD dosing,≤ 1 week
same,distribution to the cerebrospinal fluid (CSF),"[6]; oral administration, healthy volunteers",distribution of dazucorilant is observed in the cerebrospinal fluid; also recorded: distribution to the CSF was observed
same,"steady state exposures (Cmax, AUC0-24), 300 vs. 150 mg","[6]; steady state, QD dosing",approximately 4 fold
